Data from paper PMC5133935, “Hydrostatin-TL1, an Anti-Inflammatory Active Peptide from the Venom Gland of Hydrophis cyanocinctus in the South China Sea” (International Journal of Molecular Sciences, 2016).
Entries after “also recorded” stand apart in the source; their conditions may differ. No end group written: not given here.

Tests used:
[1] = system: LPS-induced acute shock in C57BL/6 mice; assay: LPS-induced acute shock, survival; type: in vivo, mouse; conditions: for survival rate: within 96 h, LPS + vehicle all died within 30 h, n = 8
Excerpt: (§1) The H. cyanocinctus specimens were captured during September 2005 in the South China Sea near Guangdong Province, People’s Republic of China. After collection, the snakes were killed, and the venom glands were isolated and immediately frozen in liquid nitrogen until use. HEK-293 human embryonic kidney and L929 mouse fibroblast cell lines were obtained from ATCC and cultured in Dulbecco’s modified Eagle’s medium (DMEM, Sigma-Aldrich, St. Louis, MO, USA) containing 10% (v/v) heat-inactivated fetal bovine serum (FBS, Gibco, BRL, Grand Island, NY, USA) at 37 °C in an atmosphere of 5% CO2. The BLT5403 E. coli strain (used as the phage host strain) was from Novagen (Merck) and was cultured at 37 °C for propagation. The specific pathogen-free (SPF) male BALB/c and C57BL/6 mice (both 6–8 weeks old), weighing 20 ± 2 g were purchased from Shanghai SLAC Laboratory Animal Co., Ltd. (Shanghai, China). The mice were housed in animal facilities with 50% humidity under a 12-h light-dark cycle, fed a standard pellet diet, and provided with tap water ad libitum. The animal experimental protocols in this research, including venom gland isolation and the mouse study, were approved by the Animal Care and Use Committee of the Second Military Medical University.
(§2) The LPS-induced acute shock model was established in male C57BL/6 mice (6–8 weeks old) that were randomly allocated to five groups. LPS was administered (15 mg/kg body weight) to induce acute shock. The LPS- or normal saline-treated mice were injected with 100 μL of normal saline with or without LPS intraperitoneally, while the H-TL1 and LPS-treated mice were each administered H-TL1 at three doses of 20, 40, and 80 μg/kg 1, 3, and 5 h after the LPS injection (Figure 5A). The mice were observed every 4 h to evaluate mortality.

[2] = system: DSS-induced colitis in BALB/c mice; assay: DSS-induced acute colitis (symptoms, DAI, body weight, spleen, colon length); type: in vivo, mouse
Excerpt: as §1
To induce colitis, 6–8 week old male BALB/c mice were administered 2.5% DSS solution in their drinking water for 7–8 consecutive days, ad libitum. Importantly, 30–40 kDa DSS was used to establish the animal model in this study because it is known to induce more severe colitis than 5 and 500 kDa DSS [37]. The mice were concomitantly administered H-TL1 (0.5 or 1 mg/kg) once daily for 7–8 consecutive days by intraperitoneal injection. Establishment of the DSS-induced colitis was evidenced by an increase in DAI, with associated weight loss, loose stool consistency, and presence of blood in the feces. DAI was monitored during the entire experiment and was assessed according to the method described in Table 1.

[3] = system: L929 cells; type: cell-based, mouse; conditions: H-TL1 100 μM; data not shown
Procedure: We used the L929 cell line, which is commonly chosen by researchers, to evaluate the effects of H-TL1 on TNF-α-mediated cytotoxicity. The cells were treated with TNF-α and 0.2 μg/mL actinomycin D in the presence of graded concentrations of H-TL1. Cell viability was evaluated using MTT assay. […] Furthermore, H-TL1 was not cytotoxic against L929 cells at 100 μM (data not shown), which far exceeds the concentration of H-TL1 used in the in vitro assays.
as §1, with “The mice were housed in animal facilities with 50% humidity under a 12-h light-dark cycle, fed a standard pellet diet, and provided with tap water ad libitum. The animal experimental protocols in this research, including venom gland isolation and the mouse study, were approved by the Animal Care and Use Committee of the Second Military Medical University.” left out

[4] = system: TNF-α/TNFR1; assay: Competitive ELISA, inhibition of TNF-α binding to TNFR1; parameters: species or system human; conditions: hrTNF-α 20 ng/mL, 1 h, 37 °C, n = 3
Excerpt: We investigated whether H-TL1 has an inhibitory effect on the binding of TNF-α to TNFRs by using ELISA. In this assay, a fixed amount of TNF-α was mixed with different concentrations of H-TL1 and applied to the TNFR-coated ELISA plates. […] SPR analysis was used to further confirm the inhibitory effects of H-TL1 on the binding of TNF-α to TNFR1. As expected, TNF-α was strongly bound with the chip-immobilized TNFR1.
The T7Select1-2b display vector, T7 select primers, blocking reagent, and elution buffer were purchased from Novagen (Merck, Kenilworth, NJ, USA). […] DSS (36–50 kDa) was bought from MP Biomedicals (Solon, OH, USA). MTT, actinomycin D, and LPS were purchased from Sigma-Aldrich (St. Louis, MO, USA).
ELISA plates were coated with sTNFR1 (100 ng/well in 100 μL of 100 mM sodium carbonate, pH 9.6) for 20 h at 4 °C, followed by blocking with phosphate buffered saline (PBS) containing 0.2% Tween-20 (PBST) and 1% BSA for 1 h at 37 °C. Different concentrations of H-TL1 (0–1 μM) were mixed with hrTNF-α (20 ng/mL) in PBS containing 1% BSA, and 100 μL/well was placed in the ELISA plates and incubated for 1 h at 37 °C. After washing with PBST, an HRP-labeled monoclonal antibody against TNF-α was added, followed by incubation at 37 °C for 1 h. The plates were then washed, incubated with o-phenylenediamine, and the absorbance was subsequently measured at 450 nm.

[5] = system: TNF-α expression in lung tissue of LPS-treated mice; assay: Immunohistochemistry, TNF-α in lung tissue; type: in vivo, mouse; conditions: IHC 400×, n = 8, *** p < 0.001 vs. LPS group
Procedure: as §2
An additional set of paraffin sections was used for immunohistochemical analysis of TNF-α expression. Sections (5-μm thick) were mounted on slides, cleaned, hydrated, blocked with endogenous peroxidase (Dako, S2001), washed with PBS, and then treated with citrate buffer ([…], pH 6.0) for target antigen retrieval. The sections were treated with a buffered blocking solution (3% BSA in PBS for 15 min), incubated for 1 h at room temperature with a primary polyclonal antibody specific to mouse TNF-α, washed with PBS, and incubated with a secondary HRP-labeled antibody (Abcam) (1:500 in PBS, v/v) at room temperature for 1 h. Then, the sections were washed again with Tris-HCl 0.05 M, pH 7.6, and subsequently incubated with 3,3′-diaminobenzidine (DAB) solution in the dark at room temperature for 10 min. […]

For ATSKPSLKC-OH [H-TL1], the survival rate ([1]; H-TL1 40 μg/kg at 1, 3, and 5 h after LPS 15 mg/kg i.p., * p < 0.05) was 37.5%, the survival rate ([1]; H-TL1 80 μg/kg at 1, 3, and 5 h after LPS 15 mg/kg i.p., *** p < 0.001) was 62.5% and the “protection from LPS-induced acute shock, dose dependence” value ([1]; H-TL1 20, 40, and 80 μg/kg, LPS 15 mg/kg i.p.) was “protected the mice from LPS-induced acute shock in a dose-dependent manner”. The “recovery / general health” value ([2]; DSS + H-TL1 1 mg/kg, n = 8) was “recovered, appearing similar in health to that of the normal group”, the “reduction in colon length” value ([2]; H-TL1 0.5 mg/kg, n = 8, * p < 0.05 vs. DSS group) was “significantly attenuated the reduction in colon length” and the “disease activity index (DAI)” value ([2]; H-TL1 1 mg/kg i.p. once daily, Days 6–8, 2.5% DSS, n = 8, * p < 0.05, ** p < 0.01 vs. DSS group) was “significantly decreased”. For the same substance, the “loss of body weight” value ([2]; H-TL1 1 mg/kg i.p. once daily, by Day 8, DSS + vehicle lost an average of 4.3 g more than normal group, n = 8) was 1.6 g, the “symptoms associated with DSS-induced colitis” value ([2]; H-TL1 1 mg/kg i.p. once daily, vs. vehicle-treated mice) was “significantly improved” and the spleen/body weight ratio ([2]; H-TL1 1 mg/kg, n = 8, * p < 0.05 vs. DSS alone) was “significantly lower”. The “reduction in colon length” value ([2]; H-TL1 1 mg/kg, n = 8, *** p < 0.001 vs. DSS group) was “significantly attenuated the reduction in colon length”, the “cytotoxicity against L929 cells” value [3] was “not cytotoxic” and the “inhibition of the binding of TNF-α with TNFR1” value ([4]; H-TL1 1 μM, plate coated with sTNFR1 100 ng/well, PBS + 1% BSA, absorbance 450 nm) was ~60%. For the same substance, the “inhibition of TNF-α/TNFR1 binding, concentration dependence” value ([4]; H-TL1 0.1–1000 nM) was “obviously inhibits the binding of TNF-α with TNFR1; also recorded: inhibited the binding of TNF-α with TNFR1 in a concentration-dependent manner” and the “TNF-α expression in lung tissue” value [5] was “attenuated this effect”.
